pIC50: −log10 of the molar value.
Test system: not given
Test: not given
Details: not given
COc1cc2c(cc1CN[C@H]1CCCN[C@H]1c1ccccc1)N(C)C(=S)CC2.Cl.Cl showed a melting point of 245 to 246 °C.
COc1cc2c(cc1CN[C@H]1CCCN[C@H]1c1ccccc1)N(C)C(=O)OC2.Cl.Cl showed a melting point of 235 to 237 °C.
Work on CN1C(=O)CCc2cc(OC(F)F)c(CN[C@H]3CCCN[C@H]3c3ccccc3)cc21.Cl.Cl yielded a melting point of 238 to 240 °C.
COc1cc2c(cc1CN[C@H]1CCCN[C@H]1c1ccccc1)C(C(F)(F)F)CC(=O)N2C.Cl.Cl (stereo partly drawn) showed a melting point of 225 to 256 °C.
COc1cc2c(cc1CN[C@H]1CCCN[C@H]1c1ccccc1)CCC(=S)N2C.Cl.Cl gave a melting point of 219 to 221 °C.
Work on COc1cc2ccc(=O)n(C)c2cc1CN[C@H]1CCCN[C@H]1c1ccccc1.Cl.Cl yielded a melting point of 260 to 263 °C.
Compound COc1cc2c(cc1CN[C@H]1CCCN[C@H]1c1ccccc1)N(C)C(=O)CC2.Cl.Cl [Compound 21, (2S,3S)-3-(6-Methoxy-1-methyl-2-oxo-1,2,3,4-tetrahydroquinolin-7-yl)methylamino-2-phenylpiperidine dihydrochloride] has a melting point of 265 to 268 °C.
Work on CN1C(=O)CCc2cc(OCC(F)(F)F)c(CN[C@H]3CCCN[C@H]3c3ccccc3)cc21.Cl.Cl yielded a melting point of 239 to 240 °C.
In the case of COc1cc2c(cc1CN[C@H]1CCCN[C@H]1c1ccccc1)C(C)(C)C(=S)N2C.Cl.Cl, the melting point was 234 to 236 °C.
With COc1cc2c(cc1CN[C@H]1CCCN[C@H]1c1ccccc1)N(C)C(=O)SC2.Cl.Cl the melting point was 252 to 254 °C.
COc1cc2c(cc1CN[C@H]1CCCN[C@H]1c1ccccc1)N(C(C)C)C(=O)CC2.Cl.Cl gave a melting point of 257 to 260 °C.
In the case of COc1cc2c(cc1CN[C@H]1CCCN[C@H]1c1ccccc1)CCC(=O)N2C.Cl.Cl, the melting point was 243 to 244 °C.
Compound COc1cc2ccc(=O)n(C)c2cc1CN[C@H]1C2CCN(CC2)[C@H]1C(c1ccccc1)c1ccccc1 has a melting point of 125 to 128 °C.
COc1cc2c(cc1CN[C@H]1CCCN[C@H]1c1ccccc1)N(C)C(=O)CCC2.Cl.Cl showed a melting point of 236 to 238 °C.
Compound COc1cc2c(cc1CN[C@H]1C3CCN(CC3)[C@H]1C(c1ccccc1)c1ccccc1)N(C)C(=O)CC2 has a melting point of 136 to 139 °C.

Target: T1, Ca^2+ channel in rat heart membrane preparation (Rattus norvegicus, UniProt P22002)
T1 construct: from tissue; host or cells: rat heart membrane preparation
T1 sequence (P22002 whole entry, other chains not shown): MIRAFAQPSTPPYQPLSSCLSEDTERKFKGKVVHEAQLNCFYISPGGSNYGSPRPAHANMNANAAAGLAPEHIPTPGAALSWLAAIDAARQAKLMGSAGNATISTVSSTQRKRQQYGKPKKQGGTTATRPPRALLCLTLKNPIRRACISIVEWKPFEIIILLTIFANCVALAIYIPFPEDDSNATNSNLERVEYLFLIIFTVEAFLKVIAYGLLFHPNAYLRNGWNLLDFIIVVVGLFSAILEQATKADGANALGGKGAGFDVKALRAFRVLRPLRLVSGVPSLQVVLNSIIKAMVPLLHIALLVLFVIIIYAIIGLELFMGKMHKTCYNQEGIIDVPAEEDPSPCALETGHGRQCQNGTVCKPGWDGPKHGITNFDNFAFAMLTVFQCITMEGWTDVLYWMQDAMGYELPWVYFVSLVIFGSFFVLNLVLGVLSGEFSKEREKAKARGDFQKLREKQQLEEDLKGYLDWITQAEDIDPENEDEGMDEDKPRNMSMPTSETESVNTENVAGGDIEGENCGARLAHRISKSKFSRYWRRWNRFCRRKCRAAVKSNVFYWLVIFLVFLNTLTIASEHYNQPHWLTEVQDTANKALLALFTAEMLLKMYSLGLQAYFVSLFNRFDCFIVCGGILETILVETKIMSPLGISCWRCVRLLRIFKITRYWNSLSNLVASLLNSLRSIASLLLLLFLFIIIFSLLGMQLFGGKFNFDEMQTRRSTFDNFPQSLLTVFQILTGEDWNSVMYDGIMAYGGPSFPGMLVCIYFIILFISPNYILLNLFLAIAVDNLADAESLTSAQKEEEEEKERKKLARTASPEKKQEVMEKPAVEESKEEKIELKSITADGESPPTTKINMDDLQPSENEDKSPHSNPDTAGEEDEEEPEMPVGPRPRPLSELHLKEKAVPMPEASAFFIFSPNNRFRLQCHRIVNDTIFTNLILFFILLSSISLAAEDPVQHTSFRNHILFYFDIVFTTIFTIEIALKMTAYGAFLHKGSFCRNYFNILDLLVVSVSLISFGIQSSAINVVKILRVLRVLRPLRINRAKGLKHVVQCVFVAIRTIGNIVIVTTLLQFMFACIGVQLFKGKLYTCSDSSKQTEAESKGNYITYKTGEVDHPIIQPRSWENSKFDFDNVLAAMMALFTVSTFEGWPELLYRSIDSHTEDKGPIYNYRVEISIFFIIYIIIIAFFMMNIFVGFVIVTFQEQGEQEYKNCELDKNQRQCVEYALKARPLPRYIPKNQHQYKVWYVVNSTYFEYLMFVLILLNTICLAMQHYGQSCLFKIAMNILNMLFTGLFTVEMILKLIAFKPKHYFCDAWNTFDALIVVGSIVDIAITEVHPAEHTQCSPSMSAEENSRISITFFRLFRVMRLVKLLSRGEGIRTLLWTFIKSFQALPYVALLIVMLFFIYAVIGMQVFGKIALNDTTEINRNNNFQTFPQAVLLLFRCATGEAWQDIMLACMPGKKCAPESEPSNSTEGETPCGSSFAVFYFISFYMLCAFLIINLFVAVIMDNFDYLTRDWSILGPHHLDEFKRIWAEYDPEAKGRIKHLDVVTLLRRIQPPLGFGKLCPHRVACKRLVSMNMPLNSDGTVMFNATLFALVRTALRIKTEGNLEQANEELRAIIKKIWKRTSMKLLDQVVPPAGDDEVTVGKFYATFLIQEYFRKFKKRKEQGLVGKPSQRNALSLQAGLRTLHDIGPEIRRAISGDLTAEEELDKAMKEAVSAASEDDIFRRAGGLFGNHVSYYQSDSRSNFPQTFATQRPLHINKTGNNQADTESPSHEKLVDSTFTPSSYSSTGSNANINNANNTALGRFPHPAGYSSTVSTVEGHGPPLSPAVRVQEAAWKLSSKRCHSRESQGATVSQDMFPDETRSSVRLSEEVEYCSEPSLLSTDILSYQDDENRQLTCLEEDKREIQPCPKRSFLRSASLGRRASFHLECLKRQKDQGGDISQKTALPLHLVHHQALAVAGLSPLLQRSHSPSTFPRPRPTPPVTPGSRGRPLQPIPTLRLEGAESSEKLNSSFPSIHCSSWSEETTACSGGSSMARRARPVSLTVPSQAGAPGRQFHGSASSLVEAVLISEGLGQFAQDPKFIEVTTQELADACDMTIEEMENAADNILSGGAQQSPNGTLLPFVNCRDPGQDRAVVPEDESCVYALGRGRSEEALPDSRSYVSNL
T1 sequence (P54290 25-944 partner limits assumed, other chains not shown): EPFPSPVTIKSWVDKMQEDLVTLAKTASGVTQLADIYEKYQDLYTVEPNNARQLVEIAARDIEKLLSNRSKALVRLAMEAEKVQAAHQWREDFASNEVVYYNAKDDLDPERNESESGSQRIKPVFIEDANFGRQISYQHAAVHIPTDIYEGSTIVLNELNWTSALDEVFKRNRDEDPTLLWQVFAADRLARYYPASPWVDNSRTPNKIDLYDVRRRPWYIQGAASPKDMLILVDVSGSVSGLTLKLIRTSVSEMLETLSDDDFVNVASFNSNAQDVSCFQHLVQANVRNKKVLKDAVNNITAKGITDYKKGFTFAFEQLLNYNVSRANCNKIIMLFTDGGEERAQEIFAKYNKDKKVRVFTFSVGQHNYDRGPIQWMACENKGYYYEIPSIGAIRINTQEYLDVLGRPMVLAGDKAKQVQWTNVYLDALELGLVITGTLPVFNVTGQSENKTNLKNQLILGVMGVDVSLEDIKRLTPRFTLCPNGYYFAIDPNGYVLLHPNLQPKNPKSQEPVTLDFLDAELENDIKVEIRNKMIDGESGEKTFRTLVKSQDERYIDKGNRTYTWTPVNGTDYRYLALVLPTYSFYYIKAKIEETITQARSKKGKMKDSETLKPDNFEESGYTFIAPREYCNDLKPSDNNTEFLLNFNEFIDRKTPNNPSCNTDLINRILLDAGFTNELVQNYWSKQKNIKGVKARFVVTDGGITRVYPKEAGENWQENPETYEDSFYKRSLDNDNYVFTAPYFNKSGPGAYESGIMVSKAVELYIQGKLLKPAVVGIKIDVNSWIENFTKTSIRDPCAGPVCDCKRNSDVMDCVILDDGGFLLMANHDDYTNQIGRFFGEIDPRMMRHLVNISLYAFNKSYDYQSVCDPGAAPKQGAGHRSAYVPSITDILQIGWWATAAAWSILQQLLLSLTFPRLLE
T1 sequence (P54290 945-1091 partner limits assumed, other chains not shown): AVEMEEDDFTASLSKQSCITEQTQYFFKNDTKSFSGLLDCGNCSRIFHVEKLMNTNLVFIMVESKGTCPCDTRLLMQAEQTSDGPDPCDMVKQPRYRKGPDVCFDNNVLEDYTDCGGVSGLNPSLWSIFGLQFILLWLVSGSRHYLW
Test: verapamil binding study ([^3H]desmethoxyverapamil)
Details: read-out: verapamil binding study (Ca^2+ channel binding affinity)
Procedure: The adverse effect on Ca^2+ channel binding affinity is determined by verapamil binding study in rat heart membrane preparation. More specifically, verapamil binding study is performed as previously described by Reynolds et al., (J. Pharmacol. Exp. Ther. 237, 731, 1986). Briefly, incubations are initiated by the addition of tissue to tubes containing 0.25 nM [^3H]desmethoxyverapamil and various concentrations of compounds (total volume; 1 ml). Nonspecific binding is defined as radioligand binding remaining in the presence of 3-10 μM methoxyverapamil.
COc1cc2c(cc1CN[C@H]1CCCN[C@H]1c1ccccc1)N(C)C(=O)CC2.Cl.Cl [Compound 21, (2S,3S)-3-(6-Methoxy-1-methyl-2-oxo-1,2,3,4-tetrahydroquinolin-7-yl)methylamino-2-phenylpiperidine dihydrochloride] showed a pIC50 of under 5.52.

Test system: [Sar^9, Met(O2)^11]substance P-induced hind paw tapping in gerbils
Test: [Sar^9, Met(O2)^11]substance P-induced tapping test
Format: in vivo, gerbil
Details: Meriones unguiculatus, % inhibition at 0.3 mg/kg scoring
Procedure: The activity of the compounds of this invention against CNS disorder is determined by [Sar^9, Met(O2)^11]substance P-induced tapping test in gerbils. More specifically, gerbils are lightly anesthetized with ether and the skull surface is exposed. [Sar^9, Met(O2)^11]substance P or vehicle (5 μl) are administered directly into the lateral ventricles via a 25 gauge needle inserted 3.5 mm below lambda. Following injection, gerbils are placed in 2 l beaker individually and monitored for repetitive hind paw tapping. Some compounds prepared in the following Examples were tested in accordance with these testing methods.
Work on COc1cc2c(cc1CN[C@H]1CCCN[C@H]1c1ccccc1)N(C)C(=O)CC2.Cl.Cl [Compound 21, (2S,3S)-3-(6-Methoxy-1-methyl-2-oxo-1,2,3,4-tetrahydroquinolin-7-yl)methylamino-2-phenylpiperidine dihydrochloride] yielded an inhibition at 0.3 mg/kg of 52%.

Target: T2, substance P receptor sites in human IM-9 cells (Homo sapiens, UniProt P25103)
T2 construct: endogenous in cells; host or cells: human IM-9 cells (whole cells)
T2 sequence (P25103 whole entry): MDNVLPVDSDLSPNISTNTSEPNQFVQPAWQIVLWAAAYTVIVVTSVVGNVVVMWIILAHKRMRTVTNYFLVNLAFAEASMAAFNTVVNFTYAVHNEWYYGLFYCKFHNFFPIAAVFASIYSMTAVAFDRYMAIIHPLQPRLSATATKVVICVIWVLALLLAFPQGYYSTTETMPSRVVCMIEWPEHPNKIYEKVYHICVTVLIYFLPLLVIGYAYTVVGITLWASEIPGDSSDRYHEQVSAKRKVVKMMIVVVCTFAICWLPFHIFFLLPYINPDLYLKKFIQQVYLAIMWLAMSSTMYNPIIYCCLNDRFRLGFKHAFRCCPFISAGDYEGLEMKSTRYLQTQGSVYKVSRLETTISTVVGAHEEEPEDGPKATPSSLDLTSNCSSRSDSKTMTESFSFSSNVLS
Test: IM-9 binding assay (inhibition of [^3H]SP binding)
Details: [^3H]SP binding to human IM-9 cells
Procedure: The activity of the compounds of the present invention, as substance P antagonists, is determined by their ability to inhibit the binding of substance P at its 30 receptor sites in CHO-cells which reveal NK1 receptor or IM-9 cells employing radioactive ligands. The substance P antagonist activity of the herein described compounds is evaluated by using the standard assay procedure described by D. G. Payan et al., as reported in the The Journal of Immunology . 133, 3260 (1984). This method essentially involves determining the concentration of the individual compound required to reduce by 50% the amount of radiolabelled substance P ligands at their receptor sites in said isolated cow tissues or IM-9 cells, thereby affording characteristic IC50 values for each compound tested. More specifically, inhibition of [^3H]SP binding to human IM-9 cells by compounds are determined in assay buffer (50 mM Tris-HCl (pH 7.4), 1 mM MnCl2, 0.02% bovine serum albumin, bacitracin (40 μg/ml), leupeptin (4 μg/ml), chymostatin (2 μg/ml) and phosphoramidon (30 μg/ml)). […] Nonspecific binding is defined as the radioactivity remaining in the presence of 1 μM SP. The filters are placed into tubes and counted using liquid scintillation counter.
COc1cc2c(cc1CN[C@H]1CCCN[C@H]1c1ccccc1)N(C)C(=O)CC2.Cl.Cl [Compound 21, (2S,3S)-3-(6-Methoxy-1-methyl-2-oxo-1,2,3,4-tetrahydroquinolin-7-yl)methylamino-2-phenylpiperidine dihydrochloride] gave a pIC50 of over 10.00.

— patent publication US20020052503A1, “Substituted benzolactam compounds as substance p antagonists” (priority 1995, published 2002)
